Test system: patients after acute myocardial infarction
Experiment: TCM symptom score, total and single (chest pain, chest tightness, short breath, fatigue, palpitation, spontaneous perspiration, pale complexion), same clinical trial
Assay type: in vivo, human
Excerpt: 3508 patients who were in accordance with the diagnostic standards of AMI for 28 days to 2 years and differentiated as Qi deficiency and blood stagnation syndrome by TCM were studied. 0.5 g Chinese medicine composition prepared by the method of EXAMPLE 1 (Coded as QSYQ) was administrated half an hour after meal, 3 times per day.
They included the overall survival time, angina pectoris score, TCM symptom score and life quality score, where angina pectoris score, TCM symptom score and life quality score were evaluated at randomization, in 1st, 3rd, 6th, 9th, 12th month after treatment and 18th month after follow-up.
The analysis method referred to the angina pectoris score.

[1] = 9 months after treatment-baseline, FAS
[2] = 9 months after treatment-baseline, PP
[3] = 12 months after treatment-baseline, FAS

CC(=O)Oc1ccccc1C(=O)O [Control group, aspirine]
chest pain score 0, percent of patients (6 months after treatment, PP): (42.93%) | chest pain score 3, number of patients (6 months after treatment, PP): 539 | chest pain score 3, percent of patients (6 months after treatment, PP): (37.75%) | chest pain score 6, number of patients (6 months after treatment, PP): 272 | chest pain score 6, percent of patients (6 months after treatment, PP): (19.05%) | chest pain score 9, number of patients (6 months after treatment, PP): 4 | chest pain score 9, percent of patients (6 months after treatment, PP): (0.28%) | chest tightness score 0, number of patients (6 months after treatment, PP): 613 | chest tightness score 0, percent of patients (6 months after treatment, PP): (42.93%) | chest tightness score 3, number of patients (6 months after treatment, PP): 539 | chest tightness score 3, percent of patients (6 months after treatment, PP): (37.75%) | chest tightness score 6, number of patients (6 months after treatment, PP): 272 | chest tightness score 6, percent of patients (6 months after treatment, PP): (19.05%) | chest tightness score 9, number of patients (6 months after treatment, PP): 4 | chest tightness score 9, percent of patients (6 months after treatment, PP): (0.28%) | change of chest pain score 0, number of patients [1]: 1022 | change of chest pain score 0, percent of patients [1]: (59.80%) | change of chest pain score 3, number of patients [1]: 463 | change of chest pain score 3, percent of patients [1]: (27.09%) | change of chest pain score 6, number of patients [1]: 124 | change of chest pain score 6, percent of patients [1]: (7.26%) | change of chest pain score 9, number of patients [1]: 6 | change of chest pain score 9, percent of patients [1]: (0.35%) | change of chest pain score −3, number of patients [1]: 81 | change of chest pain score −3, percent of patients [1]: (4.74%) | change of chest pain score −6, number of patients [1]: 13 | change of chest pain score −6, percent of patients [1]: (0.76%) | change of chest pain score −9, number of patients [1]: 0 | change of chest pain score −9, percent of patients [1]: (0.00%) | change of chest tightness score 0, number of patients [1]: 1007 | change of chest tightness score 0, percent of patients [1]: (58.92%) | change of chest tightness score 3, number of patients [1]: 534 | change of chest tightness score 3, percent of patients [1]: (31.25%) | change of chest tightness score 6, number of patients [1]: 68 | change of chest tightness score 6, percent of patients [1]: (3.98%) | change of chest tightness score 9, number of patients [1]: 4 | change of chest tightness score 9, percent of patients [1]: (0.23%) | change of chest tightness score −3, number of patients [1]: 93 | change of chest tightness score −3, percent of patients [1]: (5.44%) | change of chest tightness score −6, number of patients [1]: 3 | change of chest tightness score −6, percent of patients [1]: (0.18%) | change of chest tightness score −9, number of patients [1]: 0 | change of chest tightness score −9, percent of patients [1]: (0.00%) | change of chest pain score 0, number of patients [2]: 826 | change of chest pain score 0, percent of patients [2]: (58.58%) | change of chest pain score 3, number of patients [2]: 409 | change of chest pain score 3, percent of patients [2]: (29.01%) | change of chest pain score 6, number of patients [2]: 106 | change of chest pain score 6, percent of patients [2]: (7.52%) | change of chest pain score 9, number of patients [2]: 4 | change of chest pain score 9, percent of patients [2]: (0.28%) | change of chest pain score −3, number of patients [2]: 58 | change of chest pain score −3, percent of patients [2]: (4.11%) | change of chest pain score −6, number of patients [2]: 7 | change of chest pain score −6, percent of patients [2]: (0.50%) | change of chest pain score −9, number of patients [2]: 0 | change of chest pain score −9, percent of patients [2]: (0.00%) | change of chest tightness score 0, number of patients [2]: 801 | change of chest tightness score 0, percent of patients [2]: (56.81%) | change of chest tightness score 3, number of patients [2]: 476 | change of chest tightness score 3, percent of patients [2]: (33.76%) | change of chest tightness score 6, number of patients [2]: 62 | change of chest tightness score 6, percent of patients [2]: (4.40%) | change of chest tightness score 9, number of patients [2]: 3 | change of chest tightness score 9, percent of patients [2]: (0.21%) | change of chest tightness score −3, number of patients [2]: 65 | change of chest tightness score −3, percent of patients [2]: (4.61%) | change of chest tightness score −6, number of patients [2]: 3 | change of chest tightness score −6, percent of patients [2]: (0.21%) | change of chest tightness score −9, number of patients [2]: 0 | change of chest tightness score −9, percent of patients [2]: (0.00%) | chest pain score 0, number of patients (9 months after treatment, FAS): 791 | chest pain score 0, percent of patients (9 months after treatment, FAS): (46.04%) | chest pain score 3, number of patients (9 months after treatment, FAS): 618 | chest pain score 3, percent of patients (9 months after treatment, FAS): (35.97%) | chest pain score 6, number of patients (9 months after treatment, FAS): 305 | chest pain score 6, percent of patients (9 months after treatment, FAS): (17.75%) | chest pain score 9, number of patients (9 months after treatment, FAS): 4 | chest pain score 9, percent of patients (9 months after treatment, FAS): (0.23%) | chest tightness score 0, number of patients (9 months after treatment, FAS): 791 | chest tightness score 0, percent of patients (9 months after treatment, FAS): (46.04%) | chest tightness score 3, number of patients (9 months after treatment, FAS): 618 | chest tightness score 3, percent of patients (9 months after treatment, FAS): (35.97%) | chest tightness score 6, number of patients (9 months after treatment, FAS): 305 | chest tightness score 6, percent of patients (9 months after treatment, FAS): (17.75%) | chest tightness score 9, number of patients (9 months after treatment, FAS): 4 | chest tightness score 9, percent of patients (9 months after treatment, FAS): (0.23%) | chest pain score 0, number of patients (9 months after treatment, PP): 661 | chest pain score 0, percent of patients (9 months after treatment, PP): (46.71%) | chest pain score 3, number of patients (9 months after treatment, PP): 519 | chest pain score 3, percent of patients (9 months after treatment, PP): (36.68%) | chest pain score 6, number of patients (9 months after treatment, PP): 233 | chest pain score 6, percent of patients (9 months after treatment, PP): (16.47%) | chest pain score 9, number of patients (9 months after treatment, PP): 2 | chest pain score 9, percent of patients (9 months after treatment, PP): (0.14%) | chest tightness score 0, number of patients (9 months after treatment, PP): 661 | chest tightness score 0, percent of patients (9 months after treatment, PP): (46.71%) | chest tightness score 3, number of patients (9 months after treatment, PP): 519 | chest tightness score 3, percent of patients (9 months after treatment, PP): (36.68%) | chest tightness score 6, number of patients (9 months after treatment, PP): 233 | chest tightness score 6, percent of patients (9 months after treatment, PP): (16.47%) | chest tightness score 9, number of patients (9 months after treatment, PP): 2 | chest tightness score 9, percent of patients (9 months after treatment, PP): (0.14%) | change of chest pain score 0, number of patients [3]: 962 | change of chest pain score 0, percent of patients [3]: (56.29%) | change of chest pain score 3, number of patients [3]: 511 | change of chest pain score 3, percent of patients [3]: (29.90%) | change of chest pain score 6, number of patients [3]: 150 | change of chest pain score 6, percent of patients [3]: (8.78%) | change of chest pain score 9, number of patients [3]: 7 | change of chest pain score 9, percent of patients [3]: (0.41%) | change of chest pain score −3, number of patients [3]: 70 | change of chest pain score −3, percent of patients [3]: (4.10%) | change of chest pain score −6, number of patients [3]: 9 | change of chest pain score −6, percent of patients [3]: (0.53%) | change of chest pain score −9, number of patients [3]: 0 | change of chest pain score −9, percent of patients [3]: (0.00%) | change of chest tightness score 0, number of patients [3]: 933 | change of chest tightness score 0, percent of patients [3]: (54.59%) | change of chest tightness score 3, number of patients [3]: 598 | change of chest tightness score 3, percent of patients [3]: (34.99%) | change of chest tightness score 6, number of patients [3]: 87 | change of chest tightness score 6, percent of patients [3]: (5.09%)
